1 molecule from patent US20070167447A1, “Indole acetamides as inhibitors of the hepatitis c virus ns5b polymerase” (priority 2003, published 2007) can be followed below.

SMILES strings stand for the structures. Structures can show the parent of a compound that is named as a salt.

Assay [1] has as its target T1, HCV RNA dependent RNA polymerase (NS5B) (Hepatitis C virus genotype 1b, UniProt P26663).
T1 construct: made in house; host or cells: insect cells infected with recombinant baculovirus (as described for the cited WO 96/37619)
The experiment in a line: In-vitro HCV NS5B enzyme inhibition assay. It is filed as biochemical. The conditions noted are these: NS5B enzyme 5 nM, 1 h at 22° C. The text has this:
i) In-vitro HCV NS5B Enzyme Inhibition Assay
WO 96/37619 describes the production of recombinant HCV RdRp from insect cells infected with recombinant baculovirus encoding the enzyme. […] The reference describes a polymerisation assay using poly(A) and oligo(U) as a primer or an heteropolymeric template. Incorporation of tritiated UTP or NTPs is quantified by measuring acid-insoluble radioactivity. The present inventors have employed this assay to screen the various compounds described above as inhibitors of HCV RdRp.
(§1) Incorporation of radioactive UMP was measured as follows. The standard reaction (50 μl) was carried out in a buffer containing 20 mM tris/HCl pH 7.5, 5 mM MgCl2, 1 mM DTT, 50 mM NaCl, 0.03% N-octylglucoside, 1 μCi [^3H]-UTP (40 Ci/mmol, NEN), 10 μM UTP and 10 μg/ml poly(A) or 5 μM NTPs and 5 μg/ml heteropolymeric template. Oligo(U)12 (1 μg/ml, Genset) was added as a primer in the assay working on Poly(A) template. The final NS5B enzyme concentration was 5 nM. The order of assembly was: 1) compound, 2) enzyme, 3) template/primer, 4) NTP. After 1 h incubation at 22° C. the reaction was stopped by adding 50 μl of 20% TCA and applying samples to DE81 filters. The filters were washed thoroughly with 5% TCA containing 1M Na2HPO4/NaH2PO4, pH 7.0, rinsed with water and then ethanol, air dried, and the filter-bound radioactivity was measured in the scintillation counter. […]

The test system of assay [2] is subgenomic HCV replicon in Huh-7 cells. As to the kind of experiment: Cell based HCV sub-genomic replication assay (NS3 Cell-ELISA). The conditions noted are these: Hepatitis C virus; Huh-7 replicon cells, 96 hours, NS3 expression. How it is done:
as §1
Cell clones that stably maintain subgenomic HCV replicon were obtained by transfecting Huh-7 cells with an RNA replicon identical to I377neo/NS3-3′/wt described by Lohmann et al. (1999) (EMBL-genbank No. AJ242652), followed by selection with neomycin sulfate (G418). […] Each condition was tested in duplicate and average absorbance values were used for calculations. […] After washing again as above, the reaction was developed with p-Nitrophenyl phosphate disodium substrate (Sigma) and the absorbance at 405/620 nm read at intervals. […]
For orientation: ELISA stands for enzyme-linked immunosorbent assay.

T1 sequence (P26663 2420-3010): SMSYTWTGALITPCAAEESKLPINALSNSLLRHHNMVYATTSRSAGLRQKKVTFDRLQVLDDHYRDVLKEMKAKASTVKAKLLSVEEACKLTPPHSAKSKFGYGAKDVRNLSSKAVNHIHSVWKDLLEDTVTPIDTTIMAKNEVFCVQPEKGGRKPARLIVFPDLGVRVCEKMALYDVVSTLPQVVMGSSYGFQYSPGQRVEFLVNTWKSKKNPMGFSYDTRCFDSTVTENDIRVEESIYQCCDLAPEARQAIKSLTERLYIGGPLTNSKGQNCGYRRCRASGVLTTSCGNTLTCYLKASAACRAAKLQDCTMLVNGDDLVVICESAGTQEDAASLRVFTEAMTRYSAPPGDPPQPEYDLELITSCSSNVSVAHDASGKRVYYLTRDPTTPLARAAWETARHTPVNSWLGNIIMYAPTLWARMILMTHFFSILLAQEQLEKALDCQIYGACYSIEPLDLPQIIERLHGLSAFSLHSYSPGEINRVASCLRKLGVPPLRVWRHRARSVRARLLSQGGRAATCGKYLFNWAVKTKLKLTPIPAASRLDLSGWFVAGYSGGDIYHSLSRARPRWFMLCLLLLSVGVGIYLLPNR

One may read the IC50 as the concentration at which inhibition is half-maximal. Low readings indicate inhibition by little substance, high ones a need for much substance. One may read the EC50 as the midpoint of the concentration-response curve. In turn, `CN(CC1CCCCN1C)C(=O)Cn1c(-c2ccccc2)c(C2CCCCC2)c2ccc(C(=O)O)cc21` (centres unmarked) [Example 15, 3-cyclohexyl-1-(2-{methyl[(1-methylpiperidin-2-yl)methyl]amino}-2-oxoethyl)-2-phenyl-1H-indole-6-carboxylic acid trifluoroacetate] displayed a 50% inhibitory concentration (IC50) in assay [1] of 14 nM. This molecule also gave an EC50 in assay [2] of 270 nM.
